Results on 3 compounds are retold here after paper PMC6445171 (Journal of Enzyme Inhibition and Medicinal Chemistry, 2017).

Converted amounts (≈) assume the structure as drawn. Like-named read-outs stand apart in the source and are kept apart here.

For data set [1] the following is noted: cited from earlier work.
Another data set in a line: physchem. To be noted: pH 7.4, aqueous buffer.

Turning to `CCn1c(=O)c2c(nc(/C=C/c3ccc(OC)c(OC)c3)n2C)n(CC)c1=O` [Istradefylline], the Solubility (as a rule, how much of the substance goes into solution per volume) in data set [1] (reference antagonists) was 1.5 µM (≈ 0.577 µg/mL).

In turn, `Nc1ccc2oc(-c3ccco3)nc2c1` [Compound D1, 2-(Furan-2-yl)-1,3-benzoxazol-5-amine] showed a Solubility in the data set “physchem” of 28 µM (≈ 5.61 µg/mL).

With `COCCOc1ccc(N2CCN(CCn3ncc4c3nc(N)n3nc(-c5ccco5)nc43)CC2)cc1` [Preladenant], in data set [1] (reference antagonist), the Solubility was 0.02 µM (≈ 0.0101 µg/mL).
